# Reference: ChEMBL document CHEMBL1201862, “PubChem BioAssay data set” (2004)
#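 These data come from cells grown in 96-well plates and exposed to compound for 48 hours at five concentrations. The concentration for 50% growth inhibition is given as GI50.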 Calls of active or inactive are those of the source. Rule as the data show it: active = GI50 up to about 1.1 µM and inactive = higher.
# Assays:
# Assay in all cases: growth of human tumour cells (NCI), 48 h
# [1] = system: DU-145
# [2] = system: SNB-75
# [3] = system: A498
# [4] = system: OVCAR-8
# [5] = system: SF-295
# [6] = system: HCC 2998
# [7] = system: MOLT-4
# [8] = system: SNB-19
# [9] = system: SF-268
# [10] = system: IGROV-1
# [11] = system: K562
# [12] = system: MDA-N
# [13] = system: HCT-116
# [14] = system: CCRF-CEM
# [15] = system: M14
# [16] = system: UO-31
# [17] = system: RPMI-8226
# [18] = system: U-251
# [19] = system: Malme-3M
# [20] = system: SR
# [21] = system: NCI-H226
# [22] = system: MDA-MB-435
# [23] = system: NCI-H23
# [24] = system: A549
# [25] = system: OVCAR-3
# [26] = system: NCI/ADR-RES
# [27] = system: SK-OV-3
# [28] = system: T47D
# [29] = system: MCF7
# [30] = system: HL-60
# [31] = system: HCT-15
# [32] = system: BT-549
# [33] = system: OVCAR-5
# [34] = system: OVCAR-4
# [35] = system: HOP-62
# [36] = system: HT-29
# [37] = system: 786-0
# [38] = system: UACC-62
# [39] = system: UACC-257
# [40] = system: SN12C
# [41] = system: SW-620
# [42] = system: EKVX
# [43] = system: SK-MEL-28
# [44] = system: COLO 205
# [45] = system: SK-MEL-5
# [46] = system: MDA-MB-231
# [47] = system: HOP-92
# [48] = system: ACHN
# [49] = system: PC-3
# [50] = system: NCI-H460
# [51] = system: TK-10
smiles,measurement,setting,value
CC(=O)OCc1cc(OC(C)=O)c2cc3c(OC(C)=O)cccc3c(OC(C)=O)c2c1,GI50,[1],16.7 µM (inactive)
same,GI50,[2],22.3 µM (inactive)
same,GI50,[3],11.2 µM (inactive)
same,GI50,[4],13.3 µM (inactive)
same,GI50,[5],13.6 µM (inactive)
same,GI50,[6],14.5 µM (inactive)
same,GI50,[7],15.2 µM (inactive)
same,GI50,[8],18.3 µM (inactive)
same,GI50,[9],21.2 µM (inactive)
same,GI50,[10],14.5 µM (inactive)
same,GI50,[11],19.2 µM (inactive)
same,GI50,[12],17.1 µM (inactive)
same,GI50,[13],19.7 µM (inactive)
same,GI50,[14],> 10 µM (inactive)
same,GI50,[15],12.5 µM (inactive)
same,GI50,[16],17 µM (inactive)
same,GI50,[17],11.2 µM (inactive)
same,GI50,[18],15.6 µM (inactive)
same,GI50,[19],1.64 µM (inactive)
same,GI50,[20],19.5 µM (inactive)
same,GI50,[21],23.1 µM (inactive)
same,GI50,[22],17.7 µM (inactive)
same,GI50,[23],17.1 µM (inactive)
same,GI50,[24],12.5 µM (inactive)
same,GI50,[25],13.7 µM (inactive)
same,GI50,[26],17.2 µM (inactive)
same,GI50,[27],18.5 µM (inactive)
same,GI50,[28],21.7 µM (inactive)
same,GI50,[29],12.8 µM (inactive)
same,GI50,[30],9.51 µM (inactive)
same,GI50,[31],5.61 µM
same,GI50,[32],20.1 µM (inactive)
same,GI50,[33],18.8 µM (inactive)
same,GI50,[34],17.8 µM (inactive)
same,GI50,[35],16.9 µM (inactive)
same,GI50,[36],14.8 µM (inactive)
same,GI50,[37],13 µM (inactive)
same,GI50,[38],13.3 µM (inactive)
same,GI50,[39],22 µM (inactive)
same,GI50,[40],12.2 µM (inactive)
same,GI50,[41],12.2 µM (inactive)
same,GI50,[42],6.7 µM (inactive)
same,GI50,[43],23 µM (inactive)
same,GI50,[44],6.67 µM (inactive)
same,GI50,[45],11.2 µM (inactive)
same,GI50,[46],17.1 µM (inactive)
same,GI50,[47],20.4 µM (inactive)
same,GI50,[48],11.6 µM (inactive)
same,GI50,[49],16.5 µM (inactive)
same,GI50,[50],5.65 µM (inactive)
same,GI50,[51],12.7 µM (inactive)
